In patent publication US5391571A, “Cholesterol ester hydrolase inhibitors” (priority 1993, dated 1995):

What was measured:
[1] = target: T1, cholesterol esterase (EC 3.1.1.13) (Bos taurus, UniProt P30122); assay: in vitro inhibition of cholesteryl ester formation by cholesterol esterase; assay type: biochemical, bovine; conditions: 37° C., cholesterol and oleic acid, cholesterol esterase from bovine pancreas; read-out: IC50 (concentration that inhibits one-half of the ester formation)
T1 construct: purchased Sigma Chemical Company, St. Louis, Mo., USA C-1892; host or cells: bovine pancreas
Protocol: The ability of the compounds of this invention to inhibit the formation of cholesteryl esters and thereby interfere with and prevent assimilation of cholesterol into the lymphatic system and ultimately the blood stream was established by incubating the compounds at 37° C. with a mixture of cholesterol and oleic acid in the presence of buffered cholesterol esterase [(EC 3.1.1.13) Sigma Chemical Company, St. Louis, Mo., USA, No. C-1892, from bovine pancreas] and measuring the amount of ester formed, according to the procedure of Field, J. of Lipid Research, 25 389 (1984).

cholesterol absorption = assay: in vivo cholesterol absorption study, serum radioactivity after oral [4-^14C] cholesterol; conditions: Rattus norvegicus, 6 h, normal rats, serum radioactivity at six hours; for inhibition in vivo at 10 mg/kg / inhibition in vivo at 50 mg/kg / inhibition in vivo at 65 mg/kg / inhibition in vivo at 100 mg/kg / inhibition in vivo at 20 mg/kg: vs control, read-out: Decrease in [^14C] Cholesterol Absorption; for ED50: read-out: ED50 (effective dose inhibiting fifty percent of the cholesterol absorption of the control animals)
Protocol: The in vivo cholesterol absorption studies were conducted in normal rats by oral administration of the compound being tested in propylene glycol and olive oil followed by oral administration of [4-^14 C] cholesterol in propylene glycol and olive oil, otherwise following the procedure of Cayen et al., J. Lipid Res. 20 162 (1979). The serum radioactivity was measured at six hours after dosing. The results of this study are reported in the following Table, where available, as percent decrease compared to control and in terms of the effective dose (ED50) inhibiting fifty-percent of the absorption of the control animals.

T1 sequence (P30122 19-597): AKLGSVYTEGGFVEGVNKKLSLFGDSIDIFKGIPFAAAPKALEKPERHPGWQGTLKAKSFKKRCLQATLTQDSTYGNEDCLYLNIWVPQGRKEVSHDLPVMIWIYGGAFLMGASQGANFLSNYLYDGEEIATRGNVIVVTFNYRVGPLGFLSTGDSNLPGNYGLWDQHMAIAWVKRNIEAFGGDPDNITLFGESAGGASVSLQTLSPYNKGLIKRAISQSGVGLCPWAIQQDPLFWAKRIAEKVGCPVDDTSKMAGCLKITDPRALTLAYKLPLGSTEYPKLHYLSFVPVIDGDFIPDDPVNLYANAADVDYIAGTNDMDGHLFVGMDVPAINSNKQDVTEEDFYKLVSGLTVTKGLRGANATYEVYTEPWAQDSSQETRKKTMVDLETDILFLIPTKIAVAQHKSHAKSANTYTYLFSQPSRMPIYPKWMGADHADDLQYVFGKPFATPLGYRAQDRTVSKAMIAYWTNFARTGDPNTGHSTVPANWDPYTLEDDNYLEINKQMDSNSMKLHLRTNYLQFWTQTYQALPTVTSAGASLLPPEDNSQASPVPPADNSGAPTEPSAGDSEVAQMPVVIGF

SMILES	IC50 [1]	inhibition in vivo at 50 mg/kg (cholesterol absorption)	other results
O=C(NCCCCc1ccccc1)Oc1ccc(Oc2ccccc2)cc1 [Example 3, (4-Phenylbutyl)carbamic acid 4-phenoxyphenyl ester]	16 µM	–	inhibition in vivo at 10 mg/kg (cholesterol absorption): 70%; ED50 (cholesterol absorption): 6 mg/kg
CC1CCCN(C(=O)Oc2ccc(Oc3ccccc3)cc2)C1 (stereo not drawn) [Example 39, 3-Methyl-1-piperidinecarboxylic acid 4-phenoxyphenyl ester]	0.88 µM	73%	–
COc1ccc(Oc2ccc(OC(=O)N3CCC(C)CC3)cc2)cc1 [Example 30, 4-Methyl-1-piperidinecarboxylic acid 4-(4-methoxyphenoxy)phenyl ester]	1.2 µM	–	inhibition in vivo at 65 mg/kg (cholesterol absorption): 83%
O=C(Oc1ccc(Oc2ccccc2)cc1)N1CCC(CBr)CC1 [Example 57, 4-(Bromomethyl)-1-piperidinecarboxylic acid, 4-phenoxyphenyl ester]	0.08 µM	87%	–
O=C(NC12CC3CC(CC(C3)C1)C2)Oc1ccc(Oc2ccccc2)cc1 [Example 15]	17.5 µM	–	inhibition in vivo at 100 mg/kg (cholesterol absorption): 76%
O=C(Oc1ccc(Oc2ccccc2)cc1)N1CCC2(CCCC2)CC1 [Example 52, 8-Azaspiro[4,5]decan-8-carboxylic acid 4-phenoxyphenyl ester]	0.75 µM	78%	–
CCCC1CCN(C(=O)Oc2ccc(Oc3ccccc3)cc2)CC1 [Example 45, 4Propyl-1-piperidinecarboxylic acid 4-phenoxyphenyl ester]	0.07 µM	–	inhibition in vivo at 10 mg/kg (cholesterol absorption): 41%
CC1CCN(C(=O)Oc2ccc(Oc3ccccc3)cc2C#N)CC1 [Example 54, 4-Methyl-1-piperidinecarboxylic acid 2-cyano-4-phenoxyphenyl ester]	0.44 µM	36%	–
CN1CCN(C(=O)Oc2ccc(Oc3ccccc3)cc2)CC1 [Example 9, 4-Methyl-1-piperazinecarboxylic acid 4-phenoxyphenyl ester]	> 100 µM	–	inhibition in vivo at 100 mg/kg (cholesterol absorption): 40%
CC1(C)CCCN(C(=O)Oc2ccc(Oc3ccccc3)cc2)C1 [Example 47, 3,3-Dimethyl-1-piperidinecarboxylic acid 4-phenoxyphenyl ester]	1.6 µM	–	inhibition in vivo at 20 mg/kg (cholesterol absorption): 67%
CCC1CCN(C(=O)Oc2ccc(Oc3ccccc3)cc2)CC1 [Example 42, 4-Ethyl-1-piperidinecarboxylic acid 4-phenoxyphenyl ester]	0.05 µM	81%	–
CC(=O)OC1CCN(C(=O)Oc2ccc(Oc3ccccc3)cc2)CC1 [Example 48, 4-(Acetyloxy)-1-piperidinecarboxylic acid 4-phenoxyphenyl ester]	0.54 µM	41%	–
CCCCCCCC/C=C\CCCCCCCCNC(=O)Oc1ccc(Oc2ccccc2)cc1 [Example 67, (Z)-9-Octadecenylcarbamic acid 4-phenoxyphenyl ester]	626 µM	–	inhibition in vivo at 100 mg/kg (cholesterol absorption): 49%
CCCCNC(=O)Oc1ccc(Oc2ccc([N+](=O)[O-])cc2)cc1 [Example 20, Butylcarbamic acid 4-(4-nitrophenoxy)phenyl ester]	7.6 µM	–	inhibition in vivo at 65 mg/kg (cholesterol absorption): 27%
CCCCNC(=O)Oc1ccc(Oc2ccccc2)cc1 [Example 1, Butylcarbamic acid 4-phenoxyphenyl ester]	2 µM	–	inhibition in vivo at 100 mg/kg (cholesterol absorption): 82%; ED50 (cholesterol absorption): 24 mg/kg
CC(C)C1CCN(C(=O)Oc2ccc(Oc3ccccc3)cc2)CC1 [Example 51, 4-(1-Methylethyl)-1-piperidinecarboxylic acid 4-phenoxyphenyl ester]	0.25 µM	–	inhibition in vivo at 20 mg/kg (cholesterol absorption): 66%
Cc1ccc(Oc2ccc(OC(=O)N3CCC(C)CC3)cc2)cc1 [Example 23, 4-Methyl-1-piperidinecarboxylic acid 4-(4-methylphenoxy)phenyl ester]	0.27 µM	–	inhibition in vivo at 65 mg/kg (cholesterol absorption): 43%
